ChEMBL document CHEMBL1139288, “A simple synthesis of four stereoisomers of roseoside and their inhibitory activity on leukotriene release from mice bone marrow-derived cultured mast cells” (2009)

Experiment: Inhibition of leukotriene release in ICR mouse BMCMC […] after 6 hrs by ELISA
Assay type: functional

| SMILES | inhibition (INH) |
| --- | --- |
| CC1=CC(=O)CC(C)(C)[C@@]1(O)/C=C/[C@H](C)O[C@@H]1O[C@H](CO)[C@@H](O)[C@H](O)[C@H]1O [6S,9S-ROSEOSIDE] | 70.3% |
| CC1=CC(=O)CC(C)(C)[C@@]1(O)/C=C/[C@@H](C)O[C@@H]1O[C@H](CO)[C@@H](O)[C@H](O)[C@H]1O [6S,9R-ROSEOSIDE] | 67.4% |
| CC1=CC(=O)CC(C)(C)[C@]1(O)/C=C/[C@@H](C)O[C@@H]1O[C@H](CO)[C@@H](O)[C@H](O)[C@H]1O | 22.9% |
| CC1=CC(=O)CC(C)(C)[C@]1(O)/C=C/[C@H](C)O[C@@H]1O[C@H](CO)[C@@H](O)[C@H](O)[C@H]1O | 36.7% |
